Reference: US20090305995A1, “AGONISTS AND ANTAGONISTS OF THE SOMATOSTATIN RECEPTOR” (Novartis AG, priority 2004, published 2009)
≈ marks a conversion by molar mass, not a printed value. Like-named read-outs stand apart in the source and are kept apart here.

How the values were obtained:
Type in all cases: physicochemical
[1] = high throughput solubility (HT-Solubility)
[2] = high throughput permeability (HT-Permeability, log Pe); conditions: PAMPA, Pe in cm/s
[3] = HT-logP o/w, high throughput assay based on artificial liquid membrane permeability
Source text: To be absorbed and transported by passive diffusion, drugs must be sufficiently lipophilic to penetrate the lipid cores of membranes, but not too lipophilic that they get retained and accumulated there. The lipophilictity of a compound is expressed by the octanol/water partition coefficient or distribution coefficient. A first approximation of substance polarity can either be given by computer assisted calculations giving Clog P values or by measurement of the partition coefficients in high-throughput assays (HT-log P o/w) (Faller et al., 2004; Wohnsland et al., 2001).
Octanol/water partition coefficients are measured in a high throughput assay based on artificial liquid membrane permeability. […] Still many approaches to calculate log P values are limited due to a lack of parameterization of certain fragments and fail with increasing molecular weight which implicates higher structural complexity. Similar problems and failures are observed in chromatographic determinations of log P: Peptides might undergo structural changes driven by interactions with the stationary phase. Decisive interactions between the stationary phase and the defolded analytes are therefore also based on the linear peptide sequence. For this reason measured HT-log P o/w values based on chromatographic assays employing stationary phases may lead to erroneous results.

[4] = pH 1, pH 1.0, read-out: HT-Solubility pH 1.0
[5] = pH 6.8, pH 6.8, read-out: HT-Solubility pH 6.8
[6] = pH 4, pH 4.0, read-out: HT-Permeability logPe pH 4.0 (converted)
[7] = pH 8, pH 8.0, read-out: HT-Permeability logPe pH 8.0 (converted)
[8] = octanol/water, read-out: HT LogP ohw
[9] = pH 6.8, pH 6.8, read-out: HT-Permeability logPe pH 6.8 (converted)

Row | Structure (SMILES) | solubility [1, 4] [µg/mL] | solubility [1, 5] [µg/mL] | Papp [2, 6] [×10⁻⁶ cm/s] | Papp [2, 7] [×10⁻⁶ cm/s] | logP [3, 8] | Papp [2, 9] [×10⁻⁶ cm/s] | water solubility (in words) ([1]; see FIG. 10) | solubility ([1]; pH 1.0, read-out: HT-Solubility pH 1.0) [µg/mL] | solubility ([1]; pH 6.8, read-out: HT-Solubility pH 6.8) [µg/mL] | Papp ([2]; pH 4.0, read-out: HT-Permeability logPe pH 4.0 (converted)) [×10⁻⁶ cm/s] | logP ([3]; octanol/water; read-out: HT LogP ohw)
1 | CC(C)[C@@H](CC(=O)N(C)CCc1ccccc1)NC(=O)C[C@H](CCCCN)NC(=O)[C@@H](Cc1c[nH]c2ccccc12)NC(=O)C[C@H](Cc1ccccc1)NC(=O)CCc1ccccc1 [Compound 23, Dihydrocinnemoyl-(S)-β^3-HPhe-(R)-Trp-(S)-β^3-HLys-(R)-β^3-Leu-methyl-phenethyl-amide] | 17.4 (≈ 20 µM) | 17.4 (≈ 20 µM) | 0.1 |  | 5.9 |  |  |  |  |  | 
2 | C[C@@H](O)[C@@H](CC(N)=O)NC(=O)C[C@H](CCCCN)NC(=O)[C@@H](Cc1c[nH]c2ccccc12)NC(=O)C[C@H](Cc1ccccc1)NC(=O)c1ccccc1 [Compound 14, Benzoyl-(S)-β^3-HPhe-(R)-Trp-(S)-β^3-HLys-(R), (R)—HThr-NH2] |  |  |  |  |  |  |  | 145 (≈ 200 µM) | 14.5 (≈ 20 µM) | 0.1 | 2.6
3 | CC(=O)N(C)[C@H](CC(=O)N[C@H](Cc1c[nH]c2ccccc12)C(=O)N[C@@H](CCCCN)CC(=O)N[C@@H]1CC(=O)O[C@@H]1C)Cc1ccccc1 [Compound 39, Ac—N-Me-(S)-β^3-HPhe-(R)-Trp-(S)-β^3-HLys-(R)-4-amino-(R)-5-methyl-dihydro-furan-2-one] | 132 (≈ 200 µM) | 132 (≈ 200 µM) | 5.01 | 3.16 | 3.4 | 2 |  |  |  |  | 
4 | CCCCCCCCC(=O)N[C@H](CC(=O)N[C@H](Cc1c[nH]c2ccccc12)C(=O)N[C@@H](CCCCN)CC(=O)N[C@H](CC(N)=O)[C@@H](C)O)Cc1ccccc1 [Compound 17, Nonanoyl-(S)-β^3-HPhe-(R)-Trp-(S)-β^3-HLys-(R), (R)—HThr-NH2] | 15.2 (≈ 19.9 µM) | 15.2 (≈ 19.9 µM) | 12.6 |  | 4.2 | 2.51 |  |  |  |  | 
5 | CC(=O)N[C@H](CC(=O)N(C)[C@H](Cc1cn(C)c2ccccc12)C(=O)N[C@@H](CCCCN)CC(=O)N[C@@H]1CC(=O)O[C@@H]1C)Cc1ccccc1 [Compound 37, Ac—(S)-β^3-HPhe-(R)—N-Me-1-Me-Trp-(S)-β^3-HLys-(R)-4-amino-(R)-5-methyl-dihydro-furan-2-one] | 135 (≈ 200 µM) | 67.5 (≈ 100 µM) | 6.31 |  | 2.4 | 5.01 |  |  |  |  | 
6 | NCCCC[C@@H](CC(=O)NC1CCCC1)NC(=O)[C@@H](Cc1c[nH]c2ccccc12)NC(=O)C[C@H](Cc1ccccc1)NC(=O)C12CC3CC(CC(C3)C1)C2 [Compound 34, Adamantoyl-(S)-β^3-HPhe-(R)-Trp-(S)-β^3-HLys-cyclopentyl-amide] | 147 (≈ 200 µM) | 73.7 (≈ 100 µM) | 5.01 | 1.26 | 5.2 | 6.31 |  |  |  |  | 

Now from value to compound, other results behind:

Row | solubility [1, 4] [µg/mL] | solubility [1, 5] [µg/mL] | Papp [2, 6] [×10⁻⁶ cm/s] | Papp [2, 7] [×10⁻⁶ cm/s] | logP [3, 8] | Papp [2, 9] [×10⁻⁶ cm/s] | water solubility (in words) ([1]; see FIG. 10) | Structure (SMILES) | solubility ([1]; pH 1.0, read-out: HT-Solubility pH 1.0) [µg/mL] | solubility ([1]; pH 6.8, read-out: HT-Solubility pH 6.8) [µg/mL] | Papp ([2]; pH 4.0, read-out: HT-Permeability logPe pH 4.0 (converted)) [×10⁻⁶ cm/s] | logP ([3]; octanol/water; read-out: HT LogP ohw)
7 | 115 (≈ 200 µM) | 115 (≈ 200 µM) | 1.26 | 1 | 2.8 |  |  | CCCC(=O)N[C@H](CC(=O)N[C@H](Cc1c[nH]c2ccccc12)C(=O)N[C@@H](CCCCN)CC(N)=O)Cc1ccccc1 [Compound 61, Butyroyl-(S)-β^3-HPhe-(R)-Trp-(S)-β^3-HLys-NH2] |  |  |  | 
8 | 124 (≈ 200 µM) | 30.9 (≈ 49.9 µM) | 7.94 | 10 | 3.1 | 5.01 | medium to good | CCCCNC(=O)C[C@H](CCCCN)NC(=O)[C@@H](Cc1c[nH]c2ccccc12)NC(=O)C[C@H](Cc1ccccc1)NC(=O)CC [Compound 53, Propionyl-(S)-β^3-HPhe-(R)-Trp-(S)-β^3-HLys-butyl-amide] |  |  |  | 
9 | 123 (≈ 200 µM) | 123 (≈ 200 µM) | 2.51 | 1 | 2.8 | 2 |  | CC(=O)N[C@H](CC(=O)N[C@H](Cc1c[nH]c2ccccc12)C(=O)N[C@@H](CCCCN)CC(=O)NC1CCCC1)Cc1ccccc1 [Compound 31, Ac—(S)-β^3-HPhe-(R)-Trp-(S)-β^3-HLys-cyclopentyl-amide] |  |  |  | 
